Active and inactive are the calls of the source. The rule behind the calls is not given here.
Tests used:
[1] = Stability in rat liver microsomes assessed as half life; format: ADME, Microsome
[2] = target: CYP3A4 (Homo sapiens, UniProt P08684); assay: Inhibition of human CYP3A4 at 10 uM using midazolam as substrate relative to control; format: ADME; conditions: probe midazolam
[3] = Toxicity in collagen/CFA induced arthritis DBA/1 mouse model assessed as body weight at 50 mg/kg, po administered via gavage starting from day 21 to day 41 post collagen/CFA challenge and measured on day 21 relative to initial weight (reference value: 94.96%); format: organism-based; conditions: in vivo, 504 h, time 21 day
[4] = AUC(0 to infinity) in CD-1 mouse at 10 mg/kg, po; format: ADME, organism-based; parameters: route oral, time infinity, dose 10 mg/kg; conditions: mouse, in vivo
[5] = Drug metabolism in rat assessed as oxidised metabolite formation by MetID study analysis; format: ADME
[6] = Efflux ratio of apparent permeability from basolateral side to apical side over apical side to basolateral side in human Caco2 cells; format: ADME, cell-based; conditions: caco-2
[7] = Apparent permeability across basolateral to apical side in human Caco2 cells; format: ADME, cell-based; conditions: caco-2
[8] = system: Kasumi 1; assay: Antitumor activity against human Kasumi-1 cells xenografted in CB17 SCID mouse assessed as inhibition of tumor growth at 10 mg/kg, po QD for 29 days; format: functional; conditions: Kasumi 1, po, 696 h, time 29 day, read-out: TGI
[9] = target: T1, Bromodomain-containing protein 4 (Homo sapiens, UniProt O60885); assay: Competitive binding affinity to human partial length BRD4 (BD1,2) (N44 to E460 residues) expressed in bacterial expression system by BROMOscan assay
[10] = system: Kasumi 1; assay: Antitumor activity against human Kasumi-1 cells xenografted in CB17 SCID mouse assessed as tumor weight at 10 mg/kg, po administered for 25 days (reference value: 2.57 +/- 0.27 g); format: functional; conditions: time 25 day
[11] = target: T2, Bromodomain-containing protein 2 (Homo sapiens, UniProt P25440); assay: Binding affinity to human partial length BRD2 (BD1) (K71 to N194 residues) expressed in bacterial expression system by BROMOscan assay
T2 sequence (P25440 whole entry, the tested form may be a part): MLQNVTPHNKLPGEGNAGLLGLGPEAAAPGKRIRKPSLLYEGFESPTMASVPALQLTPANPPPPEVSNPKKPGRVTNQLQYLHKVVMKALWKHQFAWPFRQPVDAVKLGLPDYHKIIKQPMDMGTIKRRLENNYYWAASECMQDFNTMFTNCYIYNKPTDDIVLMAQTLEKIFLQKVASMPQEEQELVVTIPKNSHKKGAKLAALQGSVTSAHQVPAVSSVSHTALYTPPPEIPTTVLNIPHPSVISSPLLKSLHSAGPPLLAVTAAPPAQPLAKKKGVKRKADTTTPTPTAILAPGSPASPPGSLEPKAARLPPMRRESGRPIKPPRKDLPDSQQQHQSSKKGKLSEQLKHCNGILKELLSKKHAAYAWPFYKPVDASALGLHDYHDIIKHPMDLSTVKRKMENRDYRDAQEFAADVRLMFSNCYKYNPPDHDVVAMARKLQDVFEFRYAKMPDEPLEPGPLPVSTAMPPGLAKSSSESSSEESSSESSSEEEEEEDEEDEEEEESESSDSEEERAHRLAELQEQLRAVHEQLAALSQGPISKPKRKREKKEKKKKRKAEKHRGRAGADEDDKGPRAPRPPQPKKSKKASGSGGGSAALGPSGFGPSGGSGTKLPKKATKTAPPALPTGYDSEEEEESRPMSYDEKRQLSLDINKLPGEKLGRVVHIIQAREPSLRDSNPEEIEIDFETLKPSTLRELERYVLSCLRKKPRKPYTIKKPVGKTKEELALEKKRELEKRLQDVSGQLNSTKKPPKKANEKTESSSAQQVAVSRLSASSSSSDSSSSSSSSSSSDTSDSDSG

[12] = system: Mus musculus; assay: Antiarthritic activity in collagen/complete freund's adjuvant-induced arthritis DBA/1 mouse model assessed as reduction in arthritis severity score at 50 mg/kg, po administered via gavage once daily starting from day 21 to day 41 post collagen/CFA challenge and measured on day 0, 18, 21 followed by three times weekly up to 42 days; format: functional, organism-based; conditions: time 21.0 day
[13] = system: Mus musculus; assay: Antiinflammatory activity in collagen/complete freund's adjuvant-induced arthritis DBA/1 mouse model assessed as M-CSF level in rear right paw at 50 mg/kg, po administered via gavage starting from day 21 to day 41 post collagen/CFA challenge and measured on day 42 measured per mg protein (reference value: 3.49 pg); format: functional; conditions: time 21 day
[14] = system: MV4-11; assay: Cytotoxicity against human MV4-11 cells assessed as inhibition of cell viability; format: functional, cell-based
[15] = target: Bromodomain-containing protein 3 (Homo sapiens, UniProt Q15059); assay: Binding affinity to human partial length BRD3 (BD2) (G306 to P416 residues) expressed in bacterial expression system by BROMOscan assay
Bromodomain-containing protein 3, sequence (Q15059 whole entry, the tested form may be a part): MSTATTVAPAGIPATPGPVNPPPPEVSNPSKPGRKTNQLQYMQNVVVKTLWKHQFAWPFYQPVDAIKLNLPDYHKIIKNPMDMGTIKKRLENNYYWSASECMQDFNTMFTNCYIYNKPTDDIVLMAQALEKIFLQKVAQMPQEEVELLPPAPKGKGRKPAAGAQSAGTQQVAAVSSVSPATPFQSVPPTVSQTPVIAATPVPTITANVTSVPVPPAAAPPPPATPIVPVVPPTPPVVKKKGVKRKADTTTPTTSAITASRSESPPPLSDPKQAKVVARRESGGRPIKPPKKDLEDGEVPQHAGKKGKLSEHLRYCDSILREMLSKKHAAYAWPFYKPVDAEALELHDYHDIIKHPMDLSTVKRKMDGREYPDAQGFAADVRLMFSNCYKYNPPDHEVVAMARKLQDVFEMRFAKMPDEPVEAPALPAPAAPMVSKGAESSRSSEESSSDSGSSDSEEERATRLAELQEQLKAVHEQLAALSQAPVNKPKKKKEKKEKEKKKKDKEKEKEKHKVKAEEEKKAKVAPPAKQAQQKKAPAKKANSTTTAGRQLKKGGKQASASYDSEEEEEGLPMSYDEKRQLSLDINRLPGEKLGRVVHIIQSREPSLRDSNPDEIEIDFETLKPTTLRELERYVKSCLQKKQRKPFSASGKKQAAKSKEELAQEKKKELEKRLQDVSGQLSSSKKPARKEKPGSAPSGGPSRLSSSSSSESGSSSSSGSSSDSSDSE

[16] = Drug uptake in tumor tissue of CB17 SCID mouse xenografted with human Kasumi-1 cells at 40 mg/kg, po QD for 25 days and measured after 24 hrs post last dose; format: ADME, organism-based, Neoplasm; conditions: time 25 day, read-out: Drug uptake
[17] = AUC(0 to infinity) in CD-1 mouse at 2 mg/kg, iv; format: ADME, organism-based; parameters: time infinity, route intravenous, dose 2 mg/kg; conditions: mouse, in vivo
[18] = system: Mus musculus; assay: Antiarthritic activity in collagen/complete freund's adjuvant-induced arthritis DBA/1 mouse model assessed as reduction in histological damage of hind paw at 50 mg/kg, po administered via gavage starting from day 21 to day 41 post collagen/CFA challenge and measured on day 42 by hematoxylin-eosin staining based assay; format: functional, organism-based; conditions: time 21.0 day
[19] = Cmax in CD-1 mouse at 2 mg/kg, iv measured after 5 mins; format: ADME, organism-based; parameters: route intravenous, dose 2 mg/kg; conditions: mouse, in vivo, 5 min
[20] = target: Bromodomain testis-specific protein (Homo sapiens, UniProt Q58F21); assay: Binding affinity to human partial length BRDT (BD1) (N21 to E137 residues) expressed in bacterial expression system by BROMOscan assay
[21] = target: T2, Bromodomain-containing protein 2; assay: Binding affinity to human partial length BRD2 (BD2) (E348 to D455 residues) expressed in bacterial expression system by BROMOscan assay
[22] = system: Kasumi 1; assay: Antitumor activity against human Kasumi-1 cells xenografted in CB17 SCID mouse assessed as tumor volume at 40 mg/kg, po QD for 25 days (reference value: 2189 +/- 604 mm3); format: functional; conditions: time 25 day
[23] = target: T2, Bromodomain-containing protein 2; assay: Binding affinity to human partial length BRD2 (BD1,2) (K71 to D455 residues) expressed in bacterial expression system by BROMOscan assay
[24] = system: Mus musculus; assay: Antiarthritic activity in collagen/complete freund's adjuvant-induced arthritis DBA/1 mouse model assessed as hind paw histological score at 50 mg/kg, po administered via gavage starting from day 21 to day 41 post collagen/CFA challenge and measured on day 42 by hematoxylin-eosin staining based assay (reference value: 2.66 +/- 0.44 au); format: functional; conditions: time 21 day
[25] = system: Mus musculus; assay: Antiinflammatory activity in collagen/complete freund's adjuvant-induced arthritis DBA/1 mouse model assessed as IL-1 beta level in rear right paw at 50 mg/kg, po administered via gavage starting from day 21 to day 41 post collagen/CFA challenge and measured on day 42 measured per mg protein (reference value: 3.15 pg); format: functional; conditions: time 21 day
[26] = system: Kasumi 1; assay: Antiproliferative activity against human Kasumi-1 cells after 72 hrs by Celltiter-Glo assay; format: functional, cell-based; conditions: Kasumi 1, 72 h
[27] = target: Cytochrome P450 2C19 (Homo sapiens, UniProt P33261); assay: Inhibition of human CYP2C19 at 4.9 uM; format: ADME
Cytochrome P450 2C19, sequence (P33261 whole entry, the tested form may be a part): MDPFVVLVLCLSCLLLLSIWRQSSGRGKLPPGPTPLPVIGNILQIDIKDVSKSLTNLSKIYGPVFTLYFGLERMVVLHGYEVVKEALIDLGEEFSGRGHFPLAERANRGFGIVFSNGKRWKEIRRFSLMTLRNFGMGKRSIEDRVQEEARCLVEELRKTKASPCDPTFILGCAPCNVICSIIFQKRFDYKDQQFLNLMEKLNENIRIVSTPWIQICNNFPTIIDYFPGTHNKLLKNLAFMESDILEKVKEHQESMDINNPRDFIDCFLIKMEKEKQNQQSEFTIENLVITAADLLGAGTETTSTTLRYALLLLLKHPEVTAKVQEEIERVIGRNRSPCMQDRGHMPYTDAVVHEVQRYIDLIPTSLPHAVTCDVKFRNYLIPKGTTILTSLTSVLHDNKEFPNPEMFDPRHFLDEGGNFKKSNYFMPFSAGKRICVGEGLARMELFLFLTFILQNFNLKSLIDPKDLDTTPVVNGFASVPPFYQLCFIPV

[28] = target: T1, Bromodomain-containing protein 4; assay: Binding affinity to human partial length BRD4 (BD2) (K333 to E460 residues) expressed in bacterial expression system by BROMOscan assay
[29] = target: Voltage-gated inwardly rectifying potassium channel KCNH2 (Homo sapiens, UniProt Q12809); assay: Inhibition of human ERG by manual patch clamp assay
Voltage-gated inwardly rectifying potassium channel KCNH2, sequence (Q12809 whole entry): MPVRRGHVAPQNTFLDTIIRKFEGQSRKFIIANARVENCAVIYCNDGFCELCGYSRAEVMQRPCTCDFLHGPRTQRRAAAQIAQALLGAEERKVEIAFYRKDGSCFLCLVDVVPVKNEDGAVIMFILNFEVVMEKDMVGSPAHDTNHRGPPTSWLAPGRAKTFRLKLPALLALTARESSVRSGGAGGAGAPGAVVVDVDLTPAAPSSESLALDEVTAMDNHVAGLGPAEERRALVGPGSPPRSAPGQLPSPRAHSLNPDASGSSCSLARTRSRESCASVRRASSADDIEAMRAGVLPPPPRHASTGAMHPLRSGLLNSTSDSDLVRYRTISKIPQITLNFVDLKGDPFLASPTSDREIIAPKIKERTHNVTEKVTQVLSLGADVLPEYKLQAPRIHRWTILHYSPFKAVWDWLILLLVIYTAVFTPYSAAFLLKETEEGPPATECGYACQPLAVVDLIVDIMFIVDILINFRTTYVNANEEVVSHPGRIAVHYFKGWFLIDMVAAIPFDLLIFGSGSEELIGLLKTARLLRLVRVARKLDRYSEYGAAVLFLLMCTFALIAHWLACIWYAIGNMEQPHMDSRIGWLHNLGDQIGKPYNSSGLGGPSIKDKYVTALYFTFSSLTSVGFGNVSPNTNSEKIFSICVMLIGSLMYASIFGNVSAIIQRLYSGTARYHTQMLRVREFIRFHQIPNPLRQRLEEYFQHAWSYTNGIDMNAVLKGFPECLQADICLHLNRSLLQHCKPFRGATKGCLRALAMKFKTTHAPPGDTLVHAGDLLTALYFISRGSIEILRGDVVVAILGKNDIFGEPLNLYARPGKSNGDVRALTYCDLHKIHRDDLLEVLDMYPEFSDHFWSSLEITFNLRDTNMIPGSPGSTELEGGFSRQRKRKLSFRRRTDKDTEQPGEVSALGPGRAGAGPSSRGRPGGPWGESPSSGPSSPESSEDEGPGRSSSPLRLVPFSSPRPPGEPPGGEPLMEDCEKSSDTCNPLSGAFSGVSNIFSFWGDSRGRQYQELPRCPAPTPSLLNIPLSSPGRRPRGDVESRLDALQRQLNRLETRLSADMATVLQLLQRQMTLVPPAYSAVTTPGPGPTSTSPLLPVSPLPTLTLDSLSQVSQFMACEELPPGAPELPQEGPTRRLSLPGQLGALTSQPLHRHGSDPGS

[30] = system: Kasumi 1; assay: Antitumor activity against human Kasumi-1 cells xenografted in CB17 SCID mouse assessed as tumor volume at 10 mg/kg, po QD for 29 days (reference value: 1734 +/- 220 mm3); format: functional; conditions: time 29 day
[31] = Toxicity in CB17 SCID mouse xenografted with human Kasumi-1 cells assessed body weight loss at 10 to 40 mg/kg, po QD for 25 days; format: organism-based; conditions: in vivo, 600 h, dose 10-40 mg/kg, time 25 day
[32] = Stability in mouse liver microsomes assessed as half life; format: ADME, Microsome
[33] = system: Mus musculus; assay: Antiinflammatory activity in collagen/complete freund's adjuvant-induced arthritis DBA/1 mouse model assessed as VEGF level in rear right paw at 50 mg/kg, po administered via gavage starting from day 21 to day 41 post collagen/CFA challenge and measured on day 42 measured per mg protein (reference value: 0.98 pg); format: functional; conditions: time 21 day
[34] = system: Mus musculus; assay: Antiinflammatory activity in collagen/complete freund's adjuvant-induced arthritis DBA/1 mouse model assessed as IP-10 level in rear right paw at 50 mg/kg, po administered via gavage starting from day 21 to day 41 post collagen/CFA challenge and measured on day 42 measured per mg protein (reference value: 6.23 pg); format: functional; conditions: time 21 day

CYP3A4, sequence (P08684 whole entry): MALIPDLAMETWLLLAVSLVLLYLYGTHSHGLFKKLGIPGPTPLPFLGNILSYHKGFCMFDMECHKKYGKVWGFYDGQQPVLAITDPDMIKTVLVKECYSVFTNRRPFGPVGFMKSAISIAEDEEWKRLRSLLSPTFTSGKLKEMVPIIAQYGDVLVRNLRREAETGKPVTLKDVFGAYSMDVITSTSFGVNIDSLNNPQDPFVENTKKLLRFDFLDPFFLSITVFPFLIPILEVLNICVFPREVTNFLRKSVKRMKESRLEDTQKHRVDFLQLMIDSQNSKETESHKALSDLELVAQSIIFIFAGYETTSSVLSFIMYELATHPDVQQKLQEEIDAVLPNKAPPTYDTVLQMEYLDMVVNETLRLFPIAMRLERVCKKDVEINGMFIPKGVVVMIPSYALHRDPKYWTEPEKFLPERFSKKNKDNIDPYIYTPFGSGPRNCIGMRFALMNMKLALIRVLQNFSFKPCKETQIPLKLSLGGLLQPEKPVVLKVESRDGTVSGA

## Cc1noc(C)c1-c1ccc2nc(-c3cnn(CC(C)(C)O)c3)nc(N3CCOC[C@@H]3c3ccccc3)c2c1
[1]
  half-life: 42 min
[2]
  inhibition at 10 µM: < 50%
[3]
  Activity: 101.92%
[4]
  AUC: 18.927 µg·h/mL
[5]
  Drug metabolism: Metabolite_Detected
[6]
  Ratio: 1
[7]
  Papp: 18.4 10^-6 cm/s
[8]
  inhibition in vivo at 10 mg/kg: 41.9%
[9]
  Kd: 0.07 µM
[10]
  Activity: 1.51 g
[11]
  Kd: 0.045 µM
[12]
  Activity: Active
[13]
  Activity: 2.89 pg
[14]
  IC50: 0.94 µM
[15]
  Kd: 0.044 µM
[16]
  concentration at 600 h: 2260 ng/g
[17]
  AUC: 5.025 µg·h/mL
[18]
  Activity: Active
[19]
  Cmax: 2.337 µg/mL
[20]
  Kd: 0.076 µM
[21]
  Kd: 0.2 µM
[22]
  Activity: 66 mm3
[23]
  Kd: 0.087 µM
[24]
  Activity: 0.5 a.u.
[25]
  Activity: 2.06 pg
[26]
  IC50: 0.22 µM
[27]
  inhibition (INH): Active
[28]
  Kd: 0.081 µM
[29]
  IC50: 6.5 µM
[30]
  Activity: 1036 mm3
[31]
  Activity: Non-Toxic
[32]
  t1/2: 22 min
[33]
  Activity: 1.6 pg
[34]
  Activity: 0.92 pg
